Entries after “also recorded” stand apart in the source; their conditions may differ.
Tested on: cardiomyocytes isolated from hearts of SHAM mice
Experiment: Intracellular Ca2+ transients (Fluo-3, confocal line scan)
Type: cell-based, mouse
Procedure: Cardiomyocytes were isolated freshly from cardiac ventricles separately from SHAM and HF mice following the protocol developed by the Alliance for Cellular Signalling (AfCS Procedure Protocol ID PP00000125). From each of the 5 SHAM and 3 HF hearts a cell suspension was made and divided into 10 aliquots each, for a total of 50 aliquots from SHAM and 30 aliquots from HF hearts. These aliquots were treated with vehicle, AC01/HM01 or D-Lys3-GHPR-6+AC01/HM01 as stated and used for the subsequent physiological and biochemical experiments.
AC01/HM01 was suspended in phosphate buffer saline solution (PBS: in mM: NaCl 137, KCl 7, Na2HPO4 10, KH2PO4 […]) and diluted to obtain 3 different concentrations: 0.2, 0.5 or 1 μM in Tyrode solution. We used a concentration range within 0.2-1 μM to ensure that the receptor was activated. […] Prior to contractility and Ca^2+ signaling measurements and biochemical assays, cardiomyocyte suspensions from SHAM and HF hearts were randomized to 3 types of treatments: vehicle, AC01/HM01, or D-Lys3-GHPR-6+AC01/HM01. The treatment with different agents occurred for 15 minutes at room temperature. Some cell suspension aliquots were flash frozen in liquid N2 and stored at −80° C. for later biochemistry analyses. All the experiments were conducted blinded regarding the treatment of cardiomyocytes.
Fresh isolated cardiomyocytes were aliquoted in 1.5 ml tubes and incubated with a cell permeable form of fluorescent Ca2+ indicator Fluo-3 AM followed by washing for >5 min. […] ImageJ software (open source software developed by NIH, Bethesda, USA) was used to quantify changes in fluorescence (Ca2+ transients) and contractility of single cardiomyocytes.
Ca^2+ transients were measured using a confocal microscope (Biorad) in line scan mode. […] The fluorescent signal (F/Fo) was calculated as the ratio between resting fluorescence before the start of the Ca^2+ transient (FO) and the peak fluorescence (F) of the Ca^2+ transient.

COc1ccc([C@H](C)NC(=O)N(C)[C@@H]2CCN(C)CC2(C)C)c(Cl)c1Cl.Cl [AC01/HM01, 1-[(1S)-1-(2,3-dichloro-4-methoxyphenyl)ethyl]-3-methyl-3-[(4R)-1-methyl-3,3-dimethyl-4-piperidyl]-urea]
Ca2+ transient amplitude vs vehicle (1 μM, with D-Lys 3 GHRP-6 pretreatment): did not have any impact on Ca^2+ transient amplitudes; also recorded: did not change the Ca^2+ transient amplitude
Ca2+ transient amplitude vs vehicle (1 μM, without D-Lys3 pretreatment): did not have any impact on Ca^2+ transient amplitudes; also recorded: did not change the Ca^2+ transient amplitude
Ca2+ transient amplitude vs vehicle (all tested concentrations (0.2, 0.5, 1 μM)): no significant change in Ca^2+ transient amplitude; also recorded: did not cause alteration of Ca^2+ transient amplitudes

Source: US12648941B2, “Piperidine urea derivatives for use as inotropic agents” (Helsinn Healthcare SA, priority 2021, dated 2026)
